Laboratory results published in PubChem BioAssay AID248 (DTP/NCI, 2004).
Values joined by “and” are separate entries in the source; they are usually repeats but may differ in a detail not shown here. Identical values can stand only once. Inconclusive results and toxic doses are left out. Cut-off read from the data, not from the text of the source: active = T/C of 150% or more; inactive = T/C below 125%.

System: L1210 leukemia ip in BDF1 mice, survival T/C
Assay: NCI In Vivo Anticancer Drug Screen. Data for tumor model L1210 Leukemia (intraperitoneal) in B6D2F1 (BDF1) mice
Details: endpoint: mean survival time, higher = longer survival
Method in brief: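 Tumor cells were implanted, animals were treated, and survival was followed. The result divides the treated measurement by the vehicle-control measurement.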

[1] = dose: 100.0 mg/kg/injection, schedule: Q01DX001 (ip), vehicle: saline with Tween-80
[2] = dose: 200.0 mg/kg/injection, schedule: Q01DX001 (ip), vehicle: saline with Tween-80
[3] = dose: 100.0 mg/kg/injection, schedule: Q01DX009 (ip), vehicle: saline
[4] = dose: 200.0 mg/kg/injection, schedule: Q01DX009 (ip), vehicle: saline
[5] = dose: 400.0 mg/kg/injection, schedule: Q01DX009 (ip), vehicle: saline
[6] = dose: 100.0 mg/kg/injection, schedule: Q01DX009 (ip), vehicle: saline with Tween-80
[7] = dose: 200.0 mg/kg/injection, schedule: Q01DX009 (ip), vehicle: saline with Tween-80
[8] = dose: 400.0 mg/kg/injection, schedule: Q01DX009 (ip), vehicle: saline with Tween-80
[9] = dose: 100.0 mg/kg/injection, schedule: Q01DX001 (ip), vehicle: saline
[10] = dose: 200.0 mg/kg/injection, schedule: Q01DX001 (ip), vehicle: saline
[11] = dose: 100.0 mg/kg/injection, schedule: Q01DX009 (ip), vehicle: Klucel (hydroxypropylcellulose) (HPC)
[12] = dose: 200.0 mg/kg/injection, schedule: Q01DX009 (ip), vehicle: Klucel (hydroxypropylcellulose) (HPC)
[13] = dose: 100.0 mg/kg/injection, schedule: Q04DX003 (ip), vehicle: saline with Tween-80
[14] = dose: 100.0 mg/kg/injection, schedule: Q04DX002 (ip), vehicle: Klucel (hydroxypropylcellulose) (HPC)
[15] = dose: 50.0 mg/kg/injection, schedule: Q01DX001 (ip), vehicle: saline
[16] = dose: 100.0 mg/kg/injection, schedule: Q04DX003 (ip), vehicle: saline
[17] = dose: 200.0 mg/kg/injection, schedule: Q04DX003 (ip), vehicle: saline
[18] = dose: 400.0 mg/kg/injection, schedule: Q04DX003 (ip), vehicle: saline
[19] = dose: 100.0 mg/kg/injection, schedule: Q01DX001 (ip), vehicle: Klucel (hydroxypropylcellulose) (HPC)
[20] = dose: 200.0 mg/kg/injection, schedule: Q01DX001 (ip), vehicle: Klucel (hydroxypropylcellulose) (HPC)

Measured: T/C

Cc1ccc2[nH]c(=S)[nH]c2c1
inactive: [1] 101 % of control | [2] 106 % of control

COc1ccc(OC)c(NC(=O)Nc2ccc(CCO)cc2)c1
inactive: [3] 99 % of control | [4] 102 % of control | [5] 103 % of control

CN(C)C(=O)Nc1cccc(OC(=O)NC(C)(C)C)c1
inactive: [6] 93 % of control | [7] 87 % of control | [8] 94 % of control

CC(C)c1ccc2c(c1)CC[C@H]1[C@](C)(C(=O)O)CCC[C@]21C
inactive: [1] 101 % of control | [2] 105 % of control | dose: 400.0 mg/kg/injection, schedule: Q01DX001 (ip), vehicle: saline with Tween-80 105 % of control

O=C(O)c1cccc(-c2ccccc2)c1O
inactive: [9] 97 % of control | [10] 102 % of control

CN1CCSC1=S
inactive: dose: 50.0 mg/kg/injection, schedule: Q01DX009 (ip), vehicle: Klucel (hydroxypropylcellulose) (HPC) 92 % of control | [11] 100 % of control | dose: 100.0 mg/kg/injection, schedule: Q04DX003 (ip), vehicle: Klucel (hydroxypropylcellulose) (HPC) 105 % of control | [12] 105 % of control | dose: 200.0 mg/kg/injection, schedule: Q04DX003 (ip), vehicle: Klucel (hydroxypropylcellulose) (HPC) 105 % of control | dose: 400.0 mg/kg/injection, schedule: Q04DX003 (ip), vehicle: Klucel (hydroxypropylcellulose) (HPC) 94 % of control

O=c1[nH]c(=O)n(Cc2ccccc2)cc1Cc1cccc(OCc2ccccc2)c1
inactive: [13] 97 % of control | dose: 200.0 mg/kg/injection, schedule: Q04DX003 (ip), vehicle: saline with Tween-80 96 % of control | dose: 400.0 mg/kg/injection, schedule: Q04DX003 (ip), vehicle: saline with Tween-80 97 % of control

CCCCCCCCCCCCn1ncc2ccc([N+](=O)[O-])cc21
inactive: dose: 400.0 mg/kg/injection, schedule: Q01DX001 (ip), vehicle: saline 96 % of control

Cc1cc(O)c(C(C)(C)C)cc1N=O
inactive: dose: 50.0 mg/kg/injection, schedule: Q04DX003 (ip), vehicle: saline + alcohol 104 % of control | dose: 100.0 mg/kg/injection, schedule: Q04DX003 (ip), vehicle: saline + alcohol 101 % of control | dose: 200.0 mg/kg/injection, schedule: Q04DX003 (ip), vehicle: saline + alcohol 95 % of control

C=C1CC(c2ccc(S(=O)(=O)N3CCCC3)cc2)OC1=O (stereo not drawn)
inactive: [14] 95 % of control | dose: 200.0 mg/kg/injection, schedule: Q04DX002 (ip), vehicle: Klucel (hydroxypropylcellulose) (HPC) 98 % of control

CCCCCCNC(=O)c1ccc(C(=O)NCCCCCC)cc1
inactive: [11] 94 % of control and 101 % of control | [12] 102 % of control | dose: 400.0 mg/kg/injection, schedule: Q01DX009 (ip), vehicle: Klucel (hydroxypropylcellulose) (HPC) 95 % of control and 90 % of control

O=C1C=CC(=Nc2ccccc2Cl)O1
inactive: [6] 95 % of control | [7] 93 % of control | [8] 94 % of control

CCOCN(C)C
inactive: dose: 25.0 mg/kg/injection, schedule: Q01DX001 (ip), vehicle: saline 103 % of control | dose: 25.0 mg/kg/injection, schedule: Q01DX009 (ip), vehicle: saline 103 % of control | dose: 25.0 mg/kg/injection, schedule: Q04DX003 (ip), vehicle: saline 100 % of control | dose: 44.0 mg/kg/injection, schedule: Q01DX009 (ip), vehicle: saline 110 % of control | [15] 94 % of control | dose: 50.0 mg/kg/injection, schedule: Q01DX009 (ip), vehicle: saline 105 % of control | dose: 50.0 mg/kg/injection, schedule: Q04DX003 (ip), vehicle: saline 100 % of control | dose: 66.0 mg/kg/injection, schedule: Q01DX009 (ip), vehicle: saline 103 % of control | [9] 97 % of control and 107 % of control | [3] 97 % of control | [16] 105 % of control

Cc1ccc(S(=O)(=O)Nc2ccccc2)c(CC(O)(c2ccccc2)c2ccccc2)c1
inactive: dose: 50.0 mg/kg/injection, schedule: Q01DX009 (ip), vehicle: saline with Tween-80 93 % of control | [6] 86 % of control | [7] 93 % of control

COc1cc(N)c2ncccc2c1SC
inactive: [3] 108 % of control | [16] 93 % of control | [4] 107 % of control | [17] 95 % of control | [5] 116 % of control | [18] 102 % of control

NC(=S)NCCO
inactive: [16] 105 % of control | [17] 98 % of control | [18] 100 % of control

O=C(OCCCCCOC(=O)c1cccc([N+](=O)[O-])c1)c1cccc([N+](=O)[O-])c1
inactive: dose: 100.0 mg/kg/injection, schedule: Q01DX001 (ip), vehicle: other 93 % of control | dose: 200.0 mg/kg/injection, schedule: Q01DX001 (ip), vehicle: other 96 % of control | dose: 400.0 mg/kg/injection, schedule: Q01DX001 (ip), vehicle: other 95 % of control

C1CC2CC1C1CNCC21 (stereo not drawn)
inactive: dose: 5.0 mg/kg/injection, schedule: Q01DX001 (ip), vehicle: saline 105 % of control | dose: 10.0 mg/kg/injection, schedule: Q01DX001 (ip), vehicle: saline 97 % of control | dose: 20.0 mg/kg/injection, schedule: Q01DX001 (ip), vehicle: saline 105 % of control | dose: 40.0 mg/kg/injection, schedule: Q01DX001 (ip), vehicle: saline 100 % of control | dose: 50.0 mg/kg/injection, schedule: Q04DX002 (ip), vehicle: Klucel (hydroxypropylcellulose) (HPC) 97 % of control | dose: 80.0 mg/kg/injection, schedule: Q01DX001 (ip), vehicle: saline 91 % of control | [14] 97 % of control

c1ccc(COC2CN3CCC2CC3)cc1 (stereo not drawn)
inactive: dose: 25.0 mg/kg/injection, schedule: Q04DX003 (ip), vehicle: saline with Tween-80 91 % of control | dose: 50.0 mg/kg/injection, schedule: Q04DX003 (ip), vehicle: saline with Tween-80 95 % of control | [13] 90 % of control and 91 % of control

Cc1nc(N)nc(N)c1CCCCc1ccc(N)cc1
inactive: [19] 92 % of control | [20] 101 % of control

O=C(NC1CCCCC1)c1csnn1
inactive: dose: 75.0 mg/kg/injection, schedule: Q01DX001 (ip), vehicle: other 89 % of control | dose: 150.0 mg/kg/injection, schedule: Q01DX001 (ip), vehicle: other 97 % of control

Cc1ccc2nc(Cl)cc(=O)n2c1
inactive: [15] 97 % of control | [9] 97 % of control | [10] 97 % of control

COc1ccccc1NNS(=O)(=O)c1cccc([N+](=O)[O-])c1
inactive: dose: 75.0 mg/kg/injection, schedule: Q04DX003 (ip), vehicle: Klucel (hydroxypropylcellulose) (HPC) 104 % of control | [19] 100 % of control | dose: 150.0 mg/kg/injection, schedule: Q04DX003 (ip), vehicle: Klucel (hydroxypropylcellulose) (HPC) 94 % of control | [20] 103 % of control | dose: 300.0 mg/kg/injection, schedule: Q04DX003 (ip), vehicle: Klucel (hydroxypropylcellulose) (HPC) 104 % of control | dose: 400.0 mg/kg/injection, schedule: Q01DX001 (ip), vehicle: Klucel (hydroxypropylcellulose) (HPC) 105 % of control
